Reference: patent US9580465B2, “Tissue protective peptides and peptide analogs for preventing and treating diseases and disorders associated with tissue damage” (ARAIM PHARMACEUTICALS, INC., priority 2008, dated 2017)
Entries after “also recorded” stand apart in the source; their conditions may differ. Square brackets hold non-standard residues; d marks the D form. pGlu = O=C1CC[C@@H](C(=O)O)N1

What was measured:
UT-7epo cells = assay: UT-7epo proliferation/survival assay of erythropoietic potency; assay type: cell-based, human; conditions: 5 pM to 50 nM, 48 h incubation, WST-I reagent; FIG. 1
Method: The cells were maintained in 75 cm^2 flasks with 20 ml of medium/flask in a humidified incubator with 5% CO2 at 37° C. for 48 h. On day two of the assay, i.e., at 48 h, the cells were transferred from the flask into a 50-ml conical tube and centrifuged at 1,000 rpm for 5 minutes at room temperature. The supernatant was discarded and the cells were washed two times with 10 ml of starvation media (3% donor calf serum, 4 mM L-glutamine). The cells were then re-suspended in starvation media, using up and down pipette action to obtain a single cell suspension. The re-suspended cells were diluted with starvation media to obtain a density of 4×10^5 cells/ml, and plated at a total culture volume of 10 ml per 25 cm^2 flask. Following a 4 h incubation, the cells were again transferred to a 50-ml conical tube.
A series of 10 fold dilutions in RPMI 1640 medium containing 3% serum was used to generate concentrations of test compounds from 5 pM to 50 nM. Following a further for 48 h incubation, a solution of […] WST-I Cell Proliferation Reagent (Roche) was added to each well, and incubated for 1 hour at 37° C. in CO2. After mixing for 1 minute, the plate was read in a plate reader (absorption at 450 nm, subtracted from background absorption at 650 nm).

[1] = Erythropoietic and hematopoietic effects, 28 days i.v. in rabbits; assay type: in vivo, New Zealand White rabbits; conditions: 30, 90, 300 μg/kg per dose i.v. twice daily for 28 days, baseline vs. day 29
Method: Further the erythropoietic and hematopoietic affects of Peptide ID were evaluated in rabbits. Blood samples were taken of all rabbits prior to the initiation of the study to establish the hematological baseline for the animals. Peptide ID was administered twice daily i.v. to New Zealand White rabbits for 28 days. For this study, six males and females were assigned to groups 1 and 4, and four males and four females were assigned to groups 2 and 3. Group 1 received 0, group 2 received 30 μg (24 nmol/kg bw), group 3 received 90 μg/kg (72 nmol/kg bw); and group 4 received 300 μg/kg (240 nmol/kg bw) per dose Peptide ID in PBS by bolus i.v. administration. Blood samples to assay for hematological variables were collected on day 29.

[2] = system: 9 L/LacZ gliosarcoma cells; assay: Cortical tumor implant; assay type: in vivo, CD fisher rats; conditions: 30 μg/kg i.p. daily for 25 days following implantation; FIG. 12
Method: A cortical tumor implant study was conducted in accordance with the protocol of Lampson et al. Cancer Res. 53:176-82:1993 to determine the effect of Peptide ID on the growth of the tumor.
In accordance with the protocol, male CD fisher rats were anesthetized and their right scalp was shaved and washed with disinfectant. A small incision was then made in the scalp overlying the right temporal cerebral cortex. A 1 mm hole was drilled through the calvarium, without puncturing the dura matter. Under aseptic conditions, living 50,000 9 L/LacZ gliosarcoma cells in 5 μl was slowly injected through a 22 gauge needle attached to a precision Hamilton syringe. Bone wax was then applied to the trephanation site, the skin was sutured and a prophylactic dose of antibiotic was administered i.p. Control rats were provided with saline injections i.p. daily. The rats treated with Peptide ID received daily injections of 30 μg/kg i.p. daily for a period of 25 days. At 25 days following implantation, the animal was anesthetized and the brain perfused-fixed with 2% paraformaldehyde. The brain was then removed and cut on a brain matrix device into coronal sections 1 mm thick and the extent of tumor mass was determined by planimetric methodology.

histamine [3] = assay: Histamine induced ear inflammation; assay type: in vivo, Sprague Dawley rats; conditions: 30 μg/kg IV; 15, 30, 45 and sixty minutes; versus saline; FIG. 15
Method: The ability of peptides useful in the current therapeutic method to antagonize the pro-inflammatory affects of histamine were evaluated in a mouse model of histamine-induced edema disclosed in Brand et al. “Tea tree oil reduces histamine-induced oedema in murine ears,” Inflamm. Res. 51 (2002) 283-289. Briefly, 24 Sprague Dawley rats (male, 250 gm) were used in the study. Prior to the histamine challenge, each rat was anesthetized and the thickness of the rat's ear was measured using a spring loaded micrometer. 20 ul of 60 mg/ml solution of histamine diphosphate was injected intradermally into an ear of the rat and 30 seconds later the rat received either (1) 30 μg/kg Peptide ID IV (12 rats) or (2) Saline IV (12 rats). Then 20 ul of 60 mg/ml solution of histamine diphosphate was injected intradermally to the rat's other ear. The thickness of the rats ears was then measured using a caliper at 15, 30, 45 and sixty minutes following the histamine challenge.

histamine [4] = assay: Histamine induced wheal formation, persistence after single dose; assay type: in vivo, rats; conditions: FIG. 16
Method: The ability of Peptide ID to reduce plasma extravasation (wheal) induced by intradermal histamine administration was evaluated in rats. Animals were pre-administered Evans Blue dye (which binds tightly to albumin) to provide a visual marker of vascular leak. To determine the persistence of peptide IG activity, at various time periods after Peptide ID administration (30 μg/kg, administered intravenously), an intradermal dose of 0.12 μg histamine was administered, and the extent of dye leak quantitated by planimetry performed on digital photographs obtained 15 minutes following histamine placement, a time at which wheal surface area is greatest. Each animal was tested at only a single time point to avoid influence of histamine administration on subsequent responses.

[5] = system: total body gamma radiation; assay: Radiomitigating activity in hematopoietic screening assay; assay type: in vivo, C57BL/6 mice; conditions: for survival at day 30: 30 ug/kg subcutaneously from 24 hrs after irradiation, daily for 29 days
Method: The ability of peptides useful in the current therapeutic method to mitigate the effects of a radioactive agent on the hematopoietic system was evaluated in a murine model of radiation injury. Briefly, 80 C57BL/6 mice (50% female and 50% male, 15-28 gm) were used in the study were divided into two groups.
In both groups the radiation was administered to the mice as a single uniform total body dose of gamma radiation from a ^137Cs radiation source (GammaCell 40; Nordion International, Kanata, Ontario, Canada) at an exposure rate of 65-69 cGy/minute+/−2.5 cGy.
Group A received a LD70/30 dose of radiation (796 cGy) and then 20 of the mice were administered Peptide ID (30 ug/kg subcutaneously) at 24 hrs after irradiation and then once a day for 29 days. The remaining 20 mice (control group) received PBS (subcutaneously) at 24 hrs after irradiation and then once a day for 29 days.
The remaining 20 mice (control group) received PBS (subcutaneously) at 24 hrs after irradiation and then once a day for 29 days.
The mice were monitored for survival once a day until signs of early euthanasia appeared, then twice/day until day 30.

## UEQLERALNSS ([pGlu]EQLERALNSS-OH; also: acetate/ammonium mixed salt) [Peptide ID, first glutamine replaced with pyroglutamate]
UT-7epo cells
  proliferation of UT-7 EPO cells (erythropoietic activity): no erythropoeitic activity; also recorded: did not result in proliferation of the cells
[1]; FIG. 3A
  hemoglobin concentration: no difference; also recorded: no effect
[1]; FIG. 3B
  hematocrit: no difference; also recorded: no effect
[1]; FIG. 3C
  platelet count: no difference; also recorded: no effect
[2]
  relative volume of cortical tumor: no growth in the tumor volume; also recorded: no increase in the relative volume of the tumor
Histamine [3]
  ear thickness (edema) after histamine challenge: reduced the amount of edema; also recorded: less inflammation
Histamine [4]; following a single dose of 30 μg/kg intravenously
  persistence of the suppressive effect on wheal formation: up to 24 hours
Histamine [4]; single dose 30 μg/kg intravenously before 0.12 μg intradermal histamine
  wheal formation (plasma extravasation): suppress wheal formation
[5]; 796 cGy (LD70/30), FIG. 21A
  survival at day 30: 45%
[5]; 796 cGy and 831 cGy, 30 ug/kg subcutaneously daily
  thirty-day survival and overall survival time versus PBS: significantly increased the overall survival time
[5]; 831 cGy (LD90/30), FIG. 21B
  survival at day 30: 20%
